Six compounds from patent publication US7390819B2 (Altana Pharma AG, priority 2003, dated 2008) can be followed below.

Structures are written as SMILES.

The target of this assay is T1, human inducible NO-synthase (Homo sapiens, UniProt P35228).
T1 construct: host or cells: crude cytosolic fraction
T1 sequence (P35228 whole entry): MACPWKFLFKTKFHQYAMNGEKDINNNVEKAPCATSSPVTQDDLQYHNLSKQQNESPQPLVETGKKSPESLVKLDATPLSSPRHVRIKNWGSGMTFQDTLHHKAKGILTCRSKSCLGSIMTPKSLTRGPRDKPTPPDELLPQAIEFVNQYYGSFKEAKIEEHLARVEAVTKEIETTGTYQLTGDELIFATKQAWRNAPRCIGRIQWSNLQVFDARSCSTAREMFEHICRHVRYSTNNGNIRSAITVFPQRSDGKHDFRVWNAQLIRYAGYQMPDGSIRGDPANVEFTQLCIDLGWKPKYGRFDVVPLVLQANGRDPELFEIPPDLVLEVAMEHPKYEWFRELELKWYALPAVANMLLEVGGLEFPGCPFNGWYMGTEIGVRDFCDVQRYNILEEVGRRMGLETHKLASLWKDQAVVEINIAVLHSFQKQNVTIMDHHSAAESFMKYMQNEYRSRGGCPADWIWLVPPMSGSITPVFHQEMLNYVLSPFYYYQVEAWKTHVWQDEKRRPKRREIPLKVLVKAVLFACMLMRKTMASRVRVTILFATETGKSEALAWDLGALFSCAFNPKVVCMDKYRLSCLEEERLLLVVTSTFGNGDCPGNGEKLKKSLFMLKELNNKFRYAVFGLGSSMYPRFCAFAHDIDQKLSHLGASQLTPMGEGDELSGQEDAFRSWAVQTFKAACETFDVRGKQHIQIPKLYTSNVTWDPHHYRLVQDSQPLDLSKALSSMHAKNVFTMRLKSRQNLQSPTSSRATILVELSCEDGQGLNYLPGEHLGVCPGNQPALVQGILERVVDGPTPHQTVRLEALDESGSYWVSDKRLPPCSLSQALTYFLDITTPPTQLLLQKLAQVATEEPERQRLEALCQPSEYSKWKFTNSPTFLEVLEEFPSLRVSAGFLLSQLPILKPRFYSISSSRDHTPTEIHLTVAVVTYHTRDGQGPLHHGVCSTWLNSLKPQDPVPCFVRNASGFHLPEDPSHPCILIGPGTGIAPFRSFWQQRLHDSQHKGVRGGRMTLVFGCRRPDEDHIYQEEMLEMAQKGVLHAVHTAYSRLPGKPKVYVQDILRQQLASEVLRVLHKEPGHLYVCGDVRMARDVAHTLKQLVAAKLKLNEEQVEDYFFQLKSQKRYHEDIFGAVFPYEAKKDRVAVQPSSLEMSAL
In words: Measurement of inducible NO-synthase activity ([3H]arginine conversion). It is filed as biochemical. The note with it: crude cytosolic fraction containing human inducible NO-synthase; 0.1 μM arginine; 45 to 60 min at 37° C.; read-out: Inhibition of INOS activity [measured as −logIC50 (mol/l)] (converted). How it is done: Measurement of Inducible NO-synthase Activity
The assay is performed in 96-well microliter F-plates (Greiner, Frickenhausen, FRG) in a total volume of 100 μl in the presence of 100 nM calmodulin, 226 μM CaCl2, 477 μM MgCl2, 5 μM flavin-adenine-dinucleotide (FAD), 5 μM flavin mononucleotide (FMN), 0.1 mM NADPH, 7 mM glutathione, 10 μM BH4 and […] pH 7.2. Arginine concentrations are 0.1 μM for enzyme inhibition experiments. 150000 dpm of [^3H]arginine are added to the assay mixture. Enzyme reaction is started by the addition of 4 μg of a crude cytosolic fraction containing human inducible NO-synthase and the reaction mixture is incubated for 45 to 60 min at 37° C. Enzyme reaction is stopped by adding 10 μl of 2M MES-buffer pH 5.0. 50 μl of the incubation mixture are transferred into a MADP N65 filtration microtiter plate (Millipore, Eschborn, FRG) containing already 50 μl of AG-50W-X8 cation exchange resin (Biorad, München, FRG). The resin in the Na loaded form is pre-equilibrated in water and 70 μl (corresponding to 50 μl dry beads) are pipetted under heavy stirring with a 8 channel pipette into the filtration plate. After pipetting 50 μl of the enzyme reaction mixture onto the filtration plates, the plates are placed on a filtration manifold (Porvair, Shepperton, UK) and the flow through is collected in Pico scintillation plates (Packard, Meriden, Conn.). The resin in the filtration plates is washed with 75 μl of water (1×50 μl and 1×25 μl) which is also collected in the same plate as the sample. The total flow through of 125 μl is mixed with 175 μl of Microscint-40 scintillation cocktail (Packard) and the scintillation plate is sealed with TopSeal P-foil (Packard). Scintillation plates are counted in a scintillation counter.
For the measurement of inducible NO-synthase-inhibiting potencies of compounds increasing concentrations of inhibitors were included into the incubation mixture. IC50-values were calculated from the percent inhibition at given concentrations by nonlinear least square fitting.
The inhibitory values determined for the compounds according to the invention follow from the following table A, in which the compound numbers correspond to the example numbers.
In the case of `COc1ccnc(CCc2nc3cc4ccccc4nc3[nH]2)c1` [compound 1, 2-[2-(4-Methoxypyridin-2-yl)ethyl]-3H-imidazo[4,5-b]quinoline], the IC50 is 89.1 nM. On to `COc1ccnc(CCc2nc3cc4cc(C)ccc4nc3[nH]2)c1` [compound 2, 2-[2-(4-Methoxypyridin-2-yl)ethyl]-7-methyl-3H-imidazo[4,5-b]quinoline], for which the IC50 is 117 nM. The value for `COc1ccnc(CCc2nc3cc4cccc(C)c4nc3[nH]2)c1` [compound 3, 2-[2-(4-Methoxypyridin-2-yl)ethyl]-5-methyl-3H-imidazo[4,5-b]quinoline] was 135 nM; that for `COc1ccnc(CCc2nc3cc4cc(OC)ccc4nc3[nH]2)c1` [compound 4, 7-Methoxy-2-[2-(4-methoxypyridin-2-yl)ethyl]-3H-imidazo[4,5-b]quinoline] was 102 nM.

Take `COc1ccnc(CCc2nc3cc4cc(Br)ccc4nc3[nH]2)c1` [compound 5, 7-Bromo-2-[2-(4-methoxypyridin-2-yl)ethyl]-3H-imidazo[4,5-b]quinoline]: the IC50 is 77.6 nM. The value for `COc1ccnc(CCc2nc3cc4cc(-c5ccc(CO)cc5)ccc4nc3[nH]2)c1` [compound 6] was 363 nM.
